Reference: patent US20200163984A1, “USE OF ISOVALERYL SPIRAMYCIN I, II AND/OR III IN MANUFACTURING MEDICAMENT FOR TREATING AND/OR PREVENTING TUMOR, AND MEDICAMENT” (SHENYANG FUYANG PHARMACEUTICAL TECHNOLOGY CO., LTD., priority 2017, published 2020)

Tests used:
[1] = test system: transplanted tumor of human hepatoma cell HepG-2; assay: HepG-2 transplanted tumor in nude mice
Experimental: Then cell concentration was adjusted to 1×10^7/ml with matrigel, then each nude mouse was inoculated subcutaneously with 0.2 ml of cells at its right armpit and recorded as the first day of inoculation. When the tumor grows to be greater than or equal to 100 mm^3, the mice were randomly divided into 11 groups with 6 mice in each group: a model group, a cyclophosphamide group, isovaleryl spiramycin I groups with doses of 25, 50 and 100 mg/kg, isovaleryl spiramycin II groups with doses of 25, 50 and 100 mg/kg, and isovaleryl spiramycin III groups with doses of 25, 50 and 100 mg/kg. Each group was continuously administered intragastrically for 30 days with a dose of 20 ml/kg. The mice were sacrificed the next day after drug withdrawal and the indicators were tested. The long diameter and short diameter of the tumor, and the body weight of each mouse were recorded every 3 days from drug administration to nude mouse sacrifice.
The body weight of the nude mice and the long diameter (a) and short diameter (b) of the transplanted tumor were measured every 3 days, and the tumor volume (v), relative tumor volume (RTV) and relative tumor proliferation rate (T/C) are calculated respectively according to the following formulas, wherein V=a×b^2/2; RTV=V/V0 (V0 is the tumor volume before administration, V is the tumor volume before sacrifice), and T/C (%)=treatment group RTV/model control group RTV×100%.
Each mouse was weighed and sacrificed. After the tumor was completely stripped off from the body of the mouse, the non-tumor tissues such as blood stains and fat were removed to weigh the tumor and calculate the tumor growth inhibition rate. The average tumor weight of each group of mice is used as an indicator of efficacy. Tumor growth inhibition rate (%)=(1−the average tumor weight of the treatment group/the average tumor weight of the model group)×100%.

[2] = test system: spleen lymphocytes (ConA, LPS stimulation); assay: Spleen lymphocyte proliferation activity of Lewis lung cancer tumor-bearing mice; format: in vivo, C57BL/6 mouse; details: for lymphocyte activity compared with the control group: Lewis tumor-bearing mice; for B Lymphocyte Proliferation Activity (%) / T Lymphocyte Proliferation Activity (%): n = 6
Experimental: (§1) In the Lewis lung cancer model, the mice inoculated with the tumor were randomly divided into groups with 10 mice in each group the next day of inoculation. The groups included: a model control group, a positive drug cyclophosphamide control group (CTX, 30 mg/kg), isovaleryl spiramycin I groups with doses of 13, 26 and 52 mg/kg; isovaleryl spiramycin II groups with doses of 13, 26 and 52 mg/kg; isovaleryl spiramycin III groups with doses of 13, 26 and 52 mg/kg. Each group was continuously administered intragastrically for 15 days with a dose of 20 ml/kg.
The serum-free RPMI 1640 medium was placed in a dish, and then the dish was placed on ice. The spleen was aseptically taken and gently ground with a sterile glass slide to prepare a single cell suspension. The single cell suspension was filtered with a double-layer sterile gauze, washed twice with serum-free RPMI1640 medium, and centrifuged at 1,500 rpm for 5 min to remove the obtained supernatant. 2 mL of red blood cell lysate was added to the treated suspension, the mixture was allowed to stand for 2 min, and then 8 mL of RPMI 1640 medium was added, centrifuging was performed at 1,500 rpm for 5 min to remove the obtained supernatant, and then washing was performed twice with the RPMI 1640 medium. […] A single cell suspension was prepared by using a RPMI 1640 medium containing 10% fetal bovine serum.
The spleen cell suspension was taken, and the cell density was adjusted to 1×10^7/mL. Each mouse was set with: A. a control well: 100 μL of RPMI 1640 medium was added; B. a concanavalin A (ConA) stimulation well: 100 μL (10 mg/L) of concanavalin A (ConA) solution was added; and C. a bacterial endotoxin (LPS) stimulating well: 100 μL (20 mg/L) of bacterial endotoxin (LPS) solution was added. The above cells were added to a 96-well plate, and then 100 μL of spleen cell suspension was added to each of the above wells. After the culture plate was transferred to a saturated humidity condition with a volume fraction of 5% CO2 at 37° C. for incubation for 72 h, 10 μL of MTT solution (5 g/L) was added to each well, and incubation was continued to be performed for 4 hours under the same conditions, then the culture was terminated. 100 μl of a triple solution (SDS 10 g, 10M HCl 0.1 mL, […] 5 mL, diluted with distilled water to 100 mL) was added, and the plate was shaken for 10 min to fully dissolve the crystals. The Optical Density (OD) of each well was measured at 570 nm, and the lymphocyte proliferation rate was calculated. Lymphocyte proliferation rate (%)=[(T-C)/C]×100%, wherein T was the Optical Density of the stimulation well, and C is the Optical Density of the control well.

[3] = Thymus index and spleen index of Lewis lung cancer tumor-bearing mice; details: for Spleen Index (%) / Thymus Index (%): n = 6
Experimental: as §1

[4] = HepG-2, high dose (100 mg/kg in method) i.g. 30 days
[5] = HepG-2, low dose (25 mg/kg in method) i.g. 30 days
[6] = HepG-2, medium dose (50 mg/kg in method) i.g. 30 days
[7] = HepG-2 nude mice, 30 mg/kg, d30

## COC1C(OC(C)=O)CC(=O)OC(C)CC=CC=CC(OC2CCC(N(C)C)C(C)O2)C(C)CC(CC=O)C1OC1OC(C)C(OC2CC(C)(O)C(OC(=O)CC(C)C)C(C)O2)C(N(C)C)C1O (centres unmarked) [Isovaleryl spiramycin II, isovaleryl spiramycin II]
[1]; [4]
  Relative Tumor Proliferation Rate (T/C): 39.31%
  tumor growth inhibition rate: 61.56%
[1]; [5]
  Relative Tumor Proliferation Rate (T/C): 81.03%
  tumor growth inhibition rate: 21.07%
[1]; HepG-2, low, medium and high doses, P<0.05
  tumor volume and relative tumor volume compared with the model group: significantly lower
[1]; [6]
  Relative Tumor Proliferation Rate (T/C): 57.02%
  tumor growth inhibition rate: 31.43%
[1]; HepG-2 nude mice, 25 mg/kg
  Inhibition Rate (%): 21.07%
  Relative Tumor Proliferation Rate (T/C): 81.03%
  Relative Tumor Volume (RTV): 13.57 ± 1.64
  Tumor Weight: 1.92 ± 0.32 g
[1]; HepG-2 nude mice, 25 mg/kg, d1
  Tumor Volume (mm3) (d 1): 122.82 ± 4.10 mm3
[1]; HepG-2 nude mice, 25 mg/kg, d30
  Tumor Volume (mm3) (d30): 1666.11 ± 202.07 mm3
[1]; HepG-2 nude mice, 50 mg/kg
  Inhibition Rate (%): 31.43%
  Relative Tumor Proliferation Rate (T/C): 57.02%
  Relative Tumor Volume (RTV): 9.55 ± 2.84
  Tumor Weight: 1.67 ± 0.32 g
[1]; HepG-2 nude mice, 50 mg/kg, d1
  Tumor Volume (mm3) (d 1): 118.60 ± 4.30 mm3
[1]; HepG-2 nude mice, 50 mg/kg, d30
  Tumor Volume (mm3) (d30): 1127.90 ± 319.12 mm3
[1]; HepG-2 nude mice, 100 mg/kg
  Inhibition Rate (%): 61.56%
  Relative Tumor Proliferation Rate (T/C): 39.31%
  Relative Tumor Volume (RTV): 6.58 ± 2.48
  Tumor Weight: 0.93 ± 0.41 g
[1]; HepG-2 nude mice, 100 mg/kg, d1
  Tumor Volume (mm3) (d 1): 118.70 ± 7.20 mm3
[1]; HepG-2 nude mice, 100 mg/kg, d30
  Tumor Volume (mm3) (d30): 783.73 ± 312.41 mm3
[1]; mouse, in vivo
  mouse weight compared with the model group: no significant changes
[1]; mouse, in vivo, 25 mg/kg
  Body Weight (g) (d1): 21.98 ± 1.74 g
  Body Weight (g) (d30): 23.35 ± 1.83 g
[1]; mouse, in vivo, 50 mg/kg
  Body Weight (g) (d1): 20.75 ± 1.86 g
  Body Weight (g) (d30): 22.22 ± 1.62 g
[1]; mouse, in vivo, 100 mg/kg
  Body Weight (g) (d1): 21.48 ± 1.98 g
  Body Weight (g) (d30): 22.45 ± 1.28 g
[2]; 13, 26 and 52 mg/kg, P<0.05, P<0.01
  lymphocyte activity compared with the control group: significantly increase
[2]; dose 13 mg/kg
  B Lymphocyte Proliferation Activity (%): 39.88 ± 3.57%
  T Lymphocyte Proliferation Activity (%): 16.87 ± 3.28%
[2]; dose 26 mg/kg
  B Lymphocyte Proliferation Activity (%): 32.68 ± 2.68%
  T Lymphocyte Proliferation Activity (%): 15.82 ± 1.68%
[2]; dose 52 mg/kg
  B Lymphocyte Proliferation Activity (%): 35.94 ± 3.80%
  T Lymphocyte Proliferation Activity (%): 19.28 ± 2.35%
[3]; dose 13 mg/kg
  Spleen Index (%): 0.75 ± 0.24%
  Thymus Index (%): 0.12 ± 0.08%
[3]; dose 26 mg/kg
  Spleen Index (%): 0.68 ± 0.21%
  Thymus Index (%): 0.14 ± 0.02%
[3]; dose 52 mg/kg
  Spleen Index (%): 0.66 ± 0.17%
  Thymus Index (%): 0.15 ± 0.09%

## O=P1(N(CCCl)CCCl)NCCCO1 (centres unmarked) [Cyclophosphamide, cyclophosphamide, reference compound]
[1]; HepG-2 nude mice, 30 mg/kg
  Inhibition Rate (%): 71.04%
  Relative Tumor Proliferation Rate (T/C): 39.27%
  Relative Tumor Volume (RTV): 6.58 ± 2.18
  Tumor Weight: 0.07 ± 0.38 g
[1]; HepG-2 nude mice, 30 mg/kg, d1
  Body Weight (g) (d1): 21.89 ± 1.84 g
  Tumor Volume (mm3) (d 1): 119.66 ± 7.65 mm3
[1]; [7]
  Body Weight (g) (d30): 19.67 ± 1.49 g
  Tumor Volume (mm3) (d30): 792.56 ± 287.31 mm3
[2]; cyclophosphamide, P<0.05
  lymphocyte activity compared with the control group: significantly inhibited
[2]; dose 26 mg/kg
  B Lymphocyte Proliferation Activity (%): 11.63 ± 4.68 %
  T Lymphocyte Proliferation Activity (%): 13.24 ± 3.72 %
[3]; Lewis tumor-bearing mice, cyclophosphamide, P<0.01
  spleen index compared with the control group: significantly lower
[3]; dose 26 mg/kg
  Spleen Index (%): 0.48 ± 0.09 %
  Thymus Index (%): 0.06 ± 0.02 %
